The subject of data set [1] is human saphenous vein smooth muscle cells (HSV-SMC). The data set can be described thus: HSV-SMC proliferation assay (MTS), drugs at known concentrations. The class given is cell-based. To be noted: read-out: IC50 (concentration at which the proliferation is reduced by 50%). How it is done: (§1) A proliferation assay was performed using human saphenous vein smooth muscle cells (HSV-SMC) with cells at passage 3-5. HSV-SMC were established in 96-well plates for 24 hours then serum starved for 48 hours. […] A positive control (100%) was set for cells exposed to DMEM supplemented with 20% FBS only while a negative control (0%) was set for cells exposed to only unsupplemented DMEM. Cells were stimulated for 72 hours with the anti-proliferative drug containing culture media. A solution of [3-(4,5-dimethylthiazol-2-yl)-5-(3-carboxymethoxyphenyl)-2-(4-sulfophenyl)-2H-tetrazolium](MTS, a cell proliferation marker) is then added onto the cells for 3 hours. Absorbance at 490 nm is recorded using a 96-well plate reader.

The conditions of data set [2]: for residual tritiated actinomycin D remaining on the discs following 8 days of elution: physiological medium. How it is done:
In FIG. 1, the electrochemical cell 10 is a standard three-electrode setup. A saturated Calomel electrode (SCE) was used as the reference electrode 12 and the counter electrode 14 was a circular platinum foil (3 cm^2). A 316L stainless steel disk (0.8 cm^2 area) connected to a platinum wire 16 was used as the working electrode 18. The cell was filled with an aqueous electrodeposition solution composed of 5 mM sulfuric acid and 20 mM of an aryldiazonium-containing molecule as described in FIG. 2 for the cyclic voltammetry electrochemical process. The electrodeposition of the aryldiazonium onto the stainless steel device was applied using 2 consecutive cyclic scans ranging from −0.5 V to −1.75 V relatively to the SCE reference electrode. The current-voltage response was followed on a XY recorder. Following electrodeposition, the device was consecutively washed with water and acetonitrile to remove impurities.
FIG. 5 illustrates the necessity of the presence of a molecule containing a diazonium moiety to retain tritiated actinomycin D deposited on the surface of stainless steel 316L discs. In this experiment, stainless steel 316L discs, which are made out of the same material as the stainless steel stents and other endovascular devices, are either functionalized with 4-bromobenzenediazonium or left bare. The discs are then exposed to a solution containing 30 μg of tritiated actinomycin D whereas the solvent is acetonitrile or ethanol. Following dipping, the discs are left to dry at room temperature until the solvent evaporates. The discs are first washed in deionized water for 5 minutes followed by a 5-minute wash in a physiologic solution. The discs are then counted in a scintillation counter.
FIG. 6 illustrates the loading and retention capacity of tritiated actinomycin D immobilized as described previously onto stainless steel 316L discs, with the exception however that water was also used as solvent for immobilizing tritiated actinomycin D. Following immobilization, the discs were first washed for 5 minutes in deionized water followed by a 5-minute wash in a physiologic solution. The loading of tritiated actinomycin D onto the stainless steel discs varied according of the type of solvent used: acetonitrile>ethanol>water.
FIG. 7 illustrates the effect of varying concentrations of the 4-bromobenzenediazonium solution on the loading and retention of 30 μg of tritiated actinomycin D following 8 days of elution in a physiological medium. Stainless steel 316L discs were exposed to varying concentrations of 4-bromobenzenediazonium solution before electrodeposition with the set-up as described in FIG. 1. Actinomycin D loading in the ethanol solution increased 1.6 fold, from 4324±329 for […] to 7146±80 for 20 mM. […]

Data set [3] has as its system human saphenous vein smooth muscle cells (HSV-SMC). The class given is cell-based. Particulars: bromobenzenediazonium coated discs only, no drug. How it is done: as §1
The mark [4] stands for this setting: Homo sapiens, HSV-SMC passage 3-5, 20% FBS, 72 hours, MTS absorbance 490 nm.

Each structure is given as a SMILES string. Where two headings read alike, the source gives them in different places. Starred links: 1 amine or outer side, 2 acyl side, 3 side chain; linkers in the order of their positions; H or OH if unused. Positions of bridges follow the written chain, without caps; N, C: chain ends. Non-standard residues stand in square brackets, D forms with d. Residues, ends and D or L forms follow the SMILES beside them. Chains are numbered I, II in the order given. Actinocin(9to1) = Cc1c2oc3c(C)ccc(C(=O)[*:1])c3nc-2c(C(=O)[*:2])c(N)c1=O; NMeV = CN[C@H](C(=O)O)C(C)C; Sar = CNCC(=O)O

For the molecule `Cc1c2oc3c(C)ccc(C(=O)N[C@@H]4C(=O)N[C@H](C(C)C)C(=O)N5CCC[C@H]5C(=O)N(C)CC(=O)N(C)[C@@H](C(C)C)C(=O)O[C@@H]4C)c3nc-2c(C(=O)N[C@@H]2C(=O)N[C@H](C(C)C)C(=O)N3CCC[C@H]3C(=O)N(C)CC(=O)N(C)[C@@H](C(C)C)C(=O)O[C@@H]2C)c(N)c1=O` [actinomycin D] (I: T[dV]P[Sar][NMeV] / II: T[dV]P[Sar][NMeV]; ester I:1-I:C, II:1-II:C; linker I:N-II:N via Actinocin(9to1)), the IC50 in data set [1] (HSV-SMC passage 3-5, 20% FBS, 72 hours, MTS absorbance 490 nm) worked out at 0.081 nM. Also, the “residual tritiated actinomycin D remaining on the discs following 8 days of elution” value in data set [2] (0.02 mM 4-bromobenzenediazonium) turned out to be 348±52; in data set [2] (20 mM 4-bromobenzenediazonium) it was 2539±43. In data set [2] (4-bromobenzenediazonium functionalized discs loaded with acetonitrile, physiological solution), the “drug remaining on the discs after 10 days of elution” value is given as ~20%. Further, the “drug remaining on discs following 10 days of elution” value in data set [2] (functionalized discs loaded with acetonitrile or ethanol) was “substantial amounts”.

Take `COc1cccc2c1C(=O)c1c(O)c3c(c(O)c1C2=O)C[C@@](O)(C(=O)CO)C[C@@H]3O[C@H]1C[C@H](N)[C@H](O)[C@H](C)O1` [doxorubicin]: the IC50 in data set [1] (setting [4]) is 8 nM.

On to `F[B-](F)(F)F.N#[N+]c1ccc(Br)cc1` [molecule 5, 4-bromobenzenediazonium tetrafluoroborate], for which the “effect of elution on cell proliferation” value in data set [3] is given as “does not inhibit cell proliferation”.

Take `CC(=O)O[C@H]1C(=O)[C@@]2(C)[C@H]([C@H](OC(=O)c3ccccc3)[C@]3(O)C[C@H](OC(=O)[C@H](O)[C@@H](NC(=O)c4ccccc4)c4ccccc4)C(C)=C1C3(C)C)[C@]1(OC(C)=O)CO[C@@H]1C[C@@H]2O` [paclitaxel]: the IC50 in data set [1] (setting [4]) is 48 nM.

With `CO[C@H]1C[C@@H]2CC[C@@H](C)[C@@](O)(O2)C(=O)C(=O)N2CCCC[C@H]2C(=O)O[C@H]([C@H](C)C[C@@H]2CC[C@@H](O)[C@H](OC)C2)CC(=O)[C@H](C)/C=C(\C)[C@@H](O)[C@@H](OC)C(=O)[C@H](C)C[C@H](C)/C=C/C=C/C=C/1C` [rapamycin], in data set [1] (Homo sapiens, 72 h), the IC50 stood at 0.12 nM.

With `CC[C@]1(O)C[C@@H]2CN(CCc3c([nH]c4ccccc34)[C@@](C(=O)OC)(c3cc4c(cc3OC)N(C)[C@H]3[C@@](O)(C(=O)OC)[C@H](OC(C)=O)[C@]5(CC)C=CCN6CC[C@]43[C@@H]65)C2)C1` [vinblastine], the IC50 in data set [1] (setting [4]) is 0.74 nM.

For the molecule `CC[C@]1(O)C[C@H]2CN(CCc3c([nH]c4ccccc34)[C@@](C(=O)OC)(c3cc4c(cc3OC)N(C=O)[C@H]3[C@@](O)(C(=O)OC)[C@H](OC(C)=O)[C@]5(CC)C=CCN6CC[C@]43[C@@H]65)C2)C1` [vincristine], the IC50 in data set [1] (Homo sapiens, 72 h) was found to be 0.82 nM.
